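Protocol summary: plate cells (96-well), add compound at 5 concentrations, incubate 48 h, interpolate endpoints linearly. Abbreviation: GI50, concentration required for 50% inhibition of growth.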 Activity calls are given as the source filed them. Rule as the data show it: active = GI50 up to about 1.1 µM and inactive = higher.
Tests used:
Assay in all cases: inhibition of tumour cell growth, NCI panel, 48 h
HT-29 = tested on: HT-29
MDA-N = tested on: MDA-N
CCRF-CEM = tested on: CCRF-CEM
786-0 = tested on: 786-0
RXF 393 = tested on: RXF 393
NCI-H460 = tested on: NCI-H460
OVCAR-3 = tested on: OVCAR-3
A498 = tested on: A498
IGROV-1 = tested on: IGROV-1
NCI/ADR-RES = tested on: NCI/ADR-RES
NCI-H23 = tested on: NCI-H23
HCT-116 = tested on: HCT-116
HL-60 = tested on: HL-60
Hs-578T = tested on: Hs-578T
UACC-62 = tested on: UACC-62
LOX IMVI = tested on: LOX IMVI
MDA-MB-435 = tested on: MDA-MB-435
SW-620 = tested on: SW-620
MOLT-4 = tested on: MOLT-4
OVCAR-5 = tested on: OVCAR-5

Compound | GI50 (HT-29) | GI50 (MDA-N) | GI50 (CCRF-CEM) | GI50 (786-0) | GI50 (RXF 393) | GI50 (NCI-H460) | GI50 (OVCAR-3) | GI50 (A498) | GI50 (IGROV-1) | GI50 (NCI/ADR-RES) | GI50 (NCI-H23) | GI50 (HCT-116) | GI50 (HL-60) | GI50 (Hs-578T) | GI50 (UACC-62) | GI50 (LOX IMVI) | GI50 (MDA-MB-435) | GI50 (SW-620) | GI50 (MOLT-4) | GI50 (OVCAR-5)
Cc1ccnc2sc3ccccc3c(=O)c12 | 30.3 µM (inactive) | 39.4 µM (inactive) | 40.9 µM (inactive) | 65 µM (inactive) | 23.9 µM (inactive) | 24 µM (inactive) | 91.6 µM (inactive) | 29.8 µM (inactive) | 30.7 µM (inactive) | 48.5 µM (inactive) | 59 µM (inactive) | 32 µM (inactive) | 30 µM (inactive) | 27.3 µM (inactive) | 17.6 µM (inactive) | 29.5 µM (inactive) | 52.6 µM (inactive) | 44.3 µM (inactive) | 26 µM (inactive) | 48.5 µM (inactive)
COc1ccc(-c2nc(-c3ccc(OC)cc3)n(-c3ccccc3)n2)cc1 | 19.9 µM (inactive) | > 100 µM (inactive) | > 100 µM (inactive) | > 100 µM (inactive) | 32.8 µM (inactive) | > 100 µM (inactive) | 46.8 µM (inactive) | 45.7 µM (inactive) | > 100 µM (inactive) | > 100 µM (inactive) | 39.4 µM (inactive) | > 100 µM (inactive) | 30.5 µM (inactive) | > 100 µM (inactive) | 86.5 µM (inactive) | 41.1 µM (inactive) | > 100 µM (inactive) | > 100 µM (inactive) | 16.1 µM (inactive) | > 100 µM (inactive)
CCOC(=O)Cn1nnc2cc(Nc3nc4ccccc4nc3C(=O)OCC)ccc21 | > 100 µM (inactive) | > 100 µM (inactive) | > 100 µM (inactive) | 67 µM (inactive) | 18.6 µM (inactive) | > 100 µM (inactive) | > 100 µM (inactive) | 46.1 µM (inactive) | > 100 µM (inactive) | 64.9 µM (inactive) | > 100 µM (inactive) | > 100 µM (inactive) | > 100 µM (inactive) | 36.5 µM (inactive) | > 100 µM (inactive) | > 100 µM (inactive) | > 100 µM (inactive) | > 100 µM (inactive) | > 100 µM (inactive) | > 100 µM (inactive)
CC(=O)/C=C1\Nc2ccc([N+](=O)[O-])cc2N\C1=C/C(C)=O | 54 µM (inactive) | 37.3 µM (inactive) | 17.2 µM (inactive) | 58.1 µM (inactive) | 64.3 µM (inactive) | 21.5 µM (inactive) | 31.1 µM (inactive) | 25.4 µM (inactive) | 39.5 µM (inactive) | 30 µM (inactive) | 25.1 µM (inactive) | 28.8 µM (inactive) | 56.6 µM (inactive) | 26.7 µM (inactive) | 26.7 µM (inactive) | 73.5 µM (inactive) | 82.4 µM (inactive) | 64.6 µM (inactive) | 21 µM (inactive) | > 100 µM (inactive)
Nc1ccc(C(=O)Nc2ccccc2N)cc1 [DINALINE] | 25.9 µM (inactive) | 32.1 µM (inactive) | 11.4 µM (inactive) | > 66.4 µM (inactive) | 38.2 µM (inactive) | 18.5 µM (inactive) | 29.1 µM (inactive) | 27.5 µM (inactive) | 31.1 µM (inactive) | 3.21 µM (inactive) | 29.1 µM (inactive) | 14.2 µM (inactive) | 3.37 µM (inactive) | 22.3 µM (inactive) | 16.1 µM (inactive) | 21 µM (inactive) | 20.4 µM (inactive) | 19.2 µM (inactive) | 11.8 µM (inactive) | 8.15 µM (inactive)
CO[C@H]1[C@H](O)[C@H](O[C@H]2CC[C@@]3(C)[C@H](CC[C@@H]4[C@@H]3CC[C@]3(C)[C@@H](C5=CC(=O)OC5)CC[C@]43O)C2)O[C@@H](C)[C@@H]1O [NERIIFOLIN] | 0.000615 µM (active) | < 0.0001 µM (active) | 0.000362 µM (active) | 0.000439 µM (active) | < 0.01 µM (active) | 0.0006 µM (active) | 0.000515 µM (active) | 0.00863 µM (active) | 0.000526 µM (active) | 0.000546 µM (active) | 0.000394 µM (active) | 0.000689 µM (active) | 0.000419 µM (active) | < 0.0001 µM (active) | 0.00155 µM (active) | 0.000755 µM (active) | < 0.0001 µM (active) | 0.000925 µM (active) | 0.000377 µM (active) | 0.00154 µM (active)
CC(=O)[C@H]1CC[C@H]2[C@@H]3CCC4=CC(=O)CC[C@]4(C)[C@H]3CC[C@]12C [PROGESTERONE] | 15 µM (inactive) | 16.7 µM (inactive) | 15.7 µM (inactive) | 20.6 µM (inactive) | 22.4 µM (inactive) | 18.6 µM (inactive) | 17.3 µM (inactive) | 24.5 µM (inactive) | 24.4 µM (inactive) | 13.7 µM (inactive) | 18.1 µM (inactive) | 14.5 µM (inactive) | 9.98 µM (inactive) | 3.3 µM (inactive) | 14.7 µM (inactive) | 17.5 µM (inactive) | 19.8 µM (inactive) | 31 µM (inactive) | 12.1 µM (inactive) | 19.5 µM (inactive)

Source: ChEMBL document CHEMBL1201862, “PubChem BioAssay data set” (2004)
